# Patent US20250270180A1, “MEK INHIBITORS AND THERAPEUTIC USES THEREOF” (Immuneering Corporation, priority 2020, published 2025)
# Experiments:
# A549 pERK = experiment: A549-pERK, 2 h (quantitative Western, Jess); assay type: cell-based; conditions: Homo sapiens, A549, 2 h, phospho:total ratio normalized to DMSO control; for activity at 0.01 µM: 10 nM
# In short: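 Cells treated in duplicate for 2 h with compound, lysed and protein-normalised (1 mg/mL pERK, 1.5 mg/mL pMEK). Quantitative capillary Western; phospho/total protein ratio normalised to DMSO.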
# [1] = system: A549 CRAF BP (MEK phosphorylation); experiment: A549-CRAF BP 100 nM, 2 h (pMEK); assay type: cell-based; conditions: Homo sapiens, A549, 2 h, phospho:total ratio normalized to DMSO control
# Protocol: A549 or […] cells were treated in duplicate for two hours with compounds at varying concentrations. After two hours, the cells were lysed, snap frozen, and stored at −80° C. After storage, the lysate was quantified with the Bradford assay. Before the lysates were prepared to run on the Jess, the lysates were diluted to 1 mg/mL for pERK analysis and 1.5 mg/mL pMEK analysis using quantitative Western blotting. ERK and MEK phosphorylation levels were estimated by taking the ratio of phospho-protein to total protein and normalizing to the DMSO control. The results of this study are described in Tables 14-16.
# [2] = Absorption & efflux: Caco-2 permeability; conditions: human
# Plasma stability, human = assay type: in vitro ADME; conditions: 2 μM
# [3] = Plasma stability, beagle dog; assay type: in vitro ADME; conditions: 2 μM
# [4] = Plasma stability, CD-1 mouse; assay type: in vitro ADME; conditions: 2 μM
Compound,activity at 0.01 µM (A549 pERK) [%],activity at 0.1 µM [1] [%],also measured
Cc1c(Cc2ccnc(NS(=O)(=O)C3CCC3)c2F)c(=O)oc2cc(OC(=O)N(C)C)ccc12 [Compound 125],54.4,41.7,
CNS(=O)(=O)Nc1cccc(Cc2c(CN3CC4(CCC4)C3)c3ccc(OC(=O)N(C)C)cc3oc2=O)c1F [Compound 153],50.2,54.1,
CNC(=C[N+](=O)[O-])NCCSCc1ccc(CN(C)C)o1 [Ranitidine],,,"Papp A→B at 2 h, 10 μM [2]: < 1 ×10⁻⁶ cm/s"
CNS(=O)(=O)Nc1cccc(Cc2c(CNc3cncs3)c3ccc(OC(=O)N(C)C)cc3oc2=O)c1F [Compound 91],74.6,84.2,
CNS(=O)(=O)Nc1cccc(Cc2c(CN(C)C)c3ccc(OC(=O)N4CCC4)cc3oc2=O)c1F [Compound 128],66.3,37.7,
CNS(=O)(=O)Nc1cccc(Cc2c(CN(C)CC(C)C)c3ccc(OC(=O)N(C)C)cc3oc2=O)c1F [Compound 78],78.6,64.2,
CC[C@H](C)C(=O)O[C@H]1C[C@@H](C)C=C2C=C[C@H](C)[C@H](CC[C@@H]3C[C@@H](O)CC(=O)O3)[C@H]21 [Lovastatin],,,"Human (% Reamining @2 hour) (Plasma stability, human): 81.8%; Beagle Dog (% Reamining @2 hour) [3]: 94.1%; CD-1 Mouse (% Reamining @2 hour) [4]: 0.6%"
Cc1c(Cc2cccc(NS(=O)(=O)C(C)C)c2F)c(=O)oc2cc(OC(=O)N(C)C)ccc12 [Compound 115],13.5,39.2,
C#CCNCCc1c(Cc2cccc(NS(=O)(=O)NC)c2F)c(=O)oc2cc(OC(=O)N(C)C)ccc12 [Compound 183],32.4,65.9,activity at 10 µM (A549 pERK; 10 uM): 0.82%
CNS(=O)(=O)Nc1cccc(Cc2c(CN(C)CC3CC3)c3ccc(OC(=O)N(C)C)cc3oc2=O)c1F [Compound 84],83.2,87.3,
CCS(=O)(=O)Nc1cccc(Cc2c(CN(C)C)c3cc(Cl)c(OC(=O)N(C)C)cc3oc2=O)c1F [Compound 132],62.6,57.8,
